Experimental data from patent US11186602B2, “Glucopyranosyl derivative and use thereof” (SUNSHINE LAKE PHARMA CO., LTD., priority 2018, dated 2021).

Biological target: T1, human SGLT1 (Homo sapiens, UniProt P13866)
T1 construct: expressed in transfected cells; host or cells: CHO cells (Flp-in CHO)
T1 sequence (P13866 1-664): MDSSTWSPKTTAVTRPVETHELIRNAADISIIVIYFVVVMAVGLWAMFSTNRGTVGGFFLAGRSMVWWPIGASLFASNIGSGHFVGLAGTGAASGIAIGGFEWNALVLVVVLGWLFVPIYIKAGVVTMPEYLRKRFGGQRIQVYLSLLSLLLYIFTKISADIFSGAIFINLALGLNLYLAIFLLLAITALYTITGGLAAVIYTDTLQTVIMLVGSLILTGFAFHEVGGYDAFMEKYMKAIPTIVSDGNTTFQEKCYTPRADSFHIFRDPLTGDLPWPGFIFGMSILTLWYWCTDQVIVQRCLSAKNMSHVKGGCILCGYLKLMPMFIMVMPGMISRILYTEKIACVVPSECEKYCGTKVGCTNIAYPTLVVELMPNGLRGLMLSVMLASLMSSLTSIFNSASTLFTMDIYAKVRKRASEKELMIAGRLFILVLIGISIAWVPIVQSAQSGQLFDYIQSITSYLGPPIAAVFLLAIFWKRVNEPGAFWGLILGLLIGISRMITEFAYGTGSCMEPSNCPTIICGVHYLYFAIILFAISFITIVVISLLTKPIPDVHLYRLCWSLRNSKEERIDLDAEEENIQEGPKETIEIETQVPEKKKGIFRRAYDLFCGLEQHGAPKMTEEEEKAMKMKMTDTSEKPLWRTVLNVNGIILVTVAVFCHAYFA
Assay: Determination of SGLT1 inhibitory activity ([14C]-AMG uptake in CHO cells expressing human SGLT1)
Format: cell-based
Settings: CHO cells expressing human SGLT1, [14C]-AMG uptake, 37° C. for 1 hour
Experimental: Mock-transfected FIP-in CHO cells (3×10^4 cells) and CHO cells expressing human SGLT1 gene were seeded into 96-well plates respectively. The cells were incubated for 12 hours. Each well of the 96-well plates was washed with 150 μL of sodium-free buffer once. To each well was added 50 μL of sodium-containing buffer containing test compounds having different concentrations and 0.5 μm [^14C]-AMG And the mixture in the well was incubated at 37° C. for 1 hour. To each well was added 150 μL of precooled sodium-free buffer to terminate the reaction. The cell pellet was washed with sodium free buffer three times and the residual liquid in well was removed. To each well was added 20 μL of precooled 100 mM NaOH, and the 96-well plates were vibrated at 900 rpm for 5 minutes. Scintillation fluid (80 μL) was added to each well which was then vibrated at 600 rpm for 5 minutes. The amount of 14C-AMG was quantitatively detected using liquid scintillation.

| IC50 [nM] | Compound |
| --- | --- |
| 1.73 | Cc1ccc([C@]23OC[C@](C(C)(C)O)(O2)[C@@H](O)[C@H](O)[C@H]3O)cc1Cc1ccc(CCCC(=O)NC(C)(C)C(=O)NCCN2CCCC2)cc1 [Example 1, 2-Methyl-2-[4-[4-[[2-methyl-5-[(1S,2S,3S,4R,5S)-2,3,4-trihydroxy-1-(1-hydroxy-1-methyl-ethyl)-6,8-dioxabicyclo[3.2.1]octan-5-yl]phenyl]methyl]phenyl]butyrylamino]-N-(2-pyrrolidin-1-ylethyl)propionamide] |
| 1.16 | Cc1ccc([C@]23OC[C@](C(C)(C)O)(O2)[C@@H](O)[C@H](O)[C@H]3O)cc1Cc1ccc(CCCC(=O)NC2(C(=O)NCCN3CC[C@@H](F)C3)CCCCC2)cc1 [Example 7, N-[2-[(3R)-3-fluoropyrrolidin-1-yl]ethyl]-1-[4-[4-[[2-methyl-5-[(1S,2S,3S,4R,5S)-2,3,4-trihydroxy-1-(1-hydroxy-1-methyl-ethyl)-6,8-dioxabicyclo[3.2.1]octane-5-yl]phenyl]methyl]phenyl]butyrylamino]cyclohexyl formamide] |
| 5.75 | Cc1ccc([C@]23OC[C@](C(C)(C)O)(O2)[C@@H](O)[C@H](O)[C@H]3O)cc1Cc1ccc(CCCC(=O)N2CCC[C@H]2C(=O)NCCN(C)C)cc1 [Example 11, (2S)—N-(2-Dimethylaminoethyl)-1-[4-[4-[[2-methyl-5-[(1S,2S,3S,4R,5S)-2,3,4-trihydroxy-1-(1-hydroxy-1-methyl-ethyl)-6,8-dioxabicyclo[3.2.1]octan-5-yl]phenyl]methyl]phenyl]butyryl]pyrrolidine-2-carboxamide] |
